Experimental data: paper PMC4114247 (Cancer research, 2009)
“Also recorded” adds a separate entry of the source.

Columns and labels:
LNCaP cells = assay: Internalization into LNCaP cells; type: cell-based, human; conditions: 100 nM, 0–2 hours
[1] = system: NCr nude mice bearing LNCaP xenografts; assay: Mouse tissue distribution, LNCaP xenografts; type: in vivo
[2] = system: NCr-nu/nu mice bearing PC3 xenografts; assay: Mouse tissue distribution, PC3 xenografts; type: in vivo; conditions: PSMA deficient PC3 xenografts
[3] = system: mice bearing LNCaP xenografts; assay: SPECT/CT imaging, LNCaP xenografts; type: in vivo, mouse; conditions: 4 hr after injection
[4] = Stability in liver microsomes; type: in vitro ADME; conditions: data not shown
[5] = Stability in blood plasma; type: in vitro ADME; conditions: data not shown
[6] = system: PC3 cells (PSMA negative); assay: Direct binding to PC3 cells; conditions: 3 nM radioligand, 1 hour; PC3 cells lack PSMA
[7] = target: LNCaP cells (PSMA positive) (Homo sapiens, UniProt Q04609); assay: Direct binding to LNCaP cells
PC3 PIP (PSMA +) tumors = assay: SPECT/CT imaging, PC3 PIP; conditions: 2 hr after injection
[8] = co-injected with 50 mg/kg PMPA, 2 hours
[9] = male, athymic NCr-nu/nu, mouse, in vivo
[10] = male, athymic NCr-nu/nu, mouse, in vivo, 0.25 h
[11] = male, athymic NCr-nu/nu, mouse, in vivo, 1 h
[12] = male, athymic NCr-nu/nu, mouse, in vivo, 2 h
[13] = male, athymic NCr-nu/nu, mouse, in vivo, 4 h
[14] = male, athymic NCr-nu/nu, mouse, in vivo, 8 h
[15] = male, athymic NCr-nu/nu, mouse, in vivo, 24 h

Chain of LNCaP cells (PSMA positive) (Q04609 whole entry): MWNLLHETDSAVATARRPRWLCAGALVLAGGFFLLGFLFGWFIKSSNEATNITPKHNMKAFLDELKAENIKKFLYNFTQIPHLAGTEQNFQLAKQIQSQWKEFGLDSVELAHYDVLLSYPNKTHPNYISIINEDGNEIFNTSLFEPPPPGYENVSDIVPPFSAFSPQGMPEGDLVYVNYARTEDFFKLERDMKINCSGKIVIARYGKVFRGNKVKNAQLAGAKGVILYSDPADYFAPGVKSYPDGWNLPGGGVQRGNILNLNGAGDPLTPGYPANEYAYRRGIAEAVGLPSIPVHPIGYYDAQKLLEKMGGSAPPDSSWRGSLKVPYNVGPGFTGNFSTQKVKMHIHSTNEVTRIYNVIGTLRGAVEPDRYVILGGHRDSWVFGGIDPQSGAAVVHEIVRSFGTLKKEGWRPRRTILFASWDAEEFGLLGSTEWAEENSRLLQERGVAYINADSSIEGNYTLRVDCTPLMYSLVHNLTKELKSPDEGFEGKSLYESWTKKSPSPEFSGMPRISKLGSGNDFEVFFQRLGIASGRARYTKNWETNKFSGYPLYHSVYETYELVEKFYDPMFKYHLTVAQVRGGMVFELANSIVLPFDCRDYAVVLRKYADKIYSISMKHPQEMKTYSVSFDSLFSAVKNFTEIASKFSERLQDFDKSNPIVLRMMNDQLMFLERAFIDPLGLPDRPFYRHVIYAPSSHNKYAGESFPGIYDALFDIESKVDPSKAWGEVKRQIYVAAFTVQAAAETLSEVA

## O=C(O)CC[C@H](NC(=O)N[C@@H](CCCCNC(=O)Nc1ccc(I)cc1)C(=O)O)C(=O)O [[^123I]MIP-1095, (S)-2-(3-((S)-1-carboxy-5-(3-(4-iodophenyl)ureido)pentyl)ureido)pentanedioic acid]
LNCaP cells; 4 °C
  Internalization into LNCaP cells: but not at 4 °C
LNCaP cells; 37 °C
  Internalization into LNCaP cells: internalized; also recorded: time dependent increase in radioactivity associated with the cellular pellet
[1]; [8]
  Binding to LNCaP tumor xenografts with co-injected PMPA: blocked
  Binding to kidneys with co-injected PMPA: blocked
[1]; [9]
  Thyroid content (deiodination): < 1 % of the total injected dose
  tumor:blood ratio: > 100
  tumor:skeletal muscle ratio: > 100
[1]; [10]
  Ratio Tumor:Blood: 2.10
  Ratio Tumor:Skeletal Muscle: 8.79
  Tissue distribution: Adipose: 4.67 ± 4 %ID/g
  Tissue distribution: Blood: 3.75 ± 0.7 %ID/g
  Tissue distribution: Bone: 0.9 ± 0.27 %ID/g
  Tissue distribution: Brain: 0.17 ± 0.05 %ID/g
  Tissue distribution: Heart: 2.76 ± 0.54 %ID/g
  Tissue distribution: Kidneys: 52.2 ± 12.2 %ID/g
  Tissue distribution: Lg Intestine: 1.59 ± 1.45 %ID/g
  Tissue distribution: Liver: 8.66 ± 1.54 %ID/g
  Tissue distribution: Lungs: 4.53 ± 0.66 %ID/g
  Tissue distribution: Sk.Muscle: 0.9 ± 0.2 %ID/g
  Tissue distribution: Sm Intestine: 1.78 ± 1.05 %ID/g
  Tissue distribution: Spleen: 9.65 ± 6.44 %ID/g
  Tissue distribution: Stomach: 1.77 ± 0.52 %ID/g
  Tissue distribution: Testes: 1.11 ± 0.51 %ID/g
  Tissue distribution: Tumor (LNCaP xenograft): 7.9 ± 2.43 %ID/g
[1]; [11]
  Ratio Tumor:Blood: 10.6
  Ratio Tumor:Skeletal Muscle: 49.3
  Tissue distribution: Adipose: 2.34 ± 0.48 %ID/g
  Tissue distribution: Blood: 1.95 ± 0.23 %ID/g
  Tissue distribution: Bone: 0.55 ± 0.04 %ID/g
  Tissue distribution: Brain: 0.06 ± 0.03 %ID/g
  Tissue distribution: Heart: 1.31 ± 0.22 %ID/g
  Tissue distribution: Kidneys: 65.3 ± 7.5 %ID/g
  Tissue distribution: Lg Intestine: 0.87 ± 0.38 %ID/g
  Tissue distribution: Liver: 11.3 ± 1.3 %ID/g
  Tissue distribution: Lungs: 3.22 ± 0.68 %ID/g
  Tissue distribution: Sk.Muscle: 0.42 ± 0.03 %ID/g
  Tissue distribution: Sm Intestine: 4.4 ± 0.55 %ID/g
  Tissue distribution: Spleen: 4.57 ± 0.77 %ID/g
  Tissue distribution: Stomach: 3.02 ± 0.47 %ID/g
  Tissue distribution: Testes: 0.86 ± 0.18 %ID/g
  Tissue distribution: Tumor (LNCaP xenograft): 20.7 ± 5.8 %ID/g
[1]; [12]
  Ratio Tumor:Blood: 24.3
  Ratio Tumor:Skeletal Muscle: 80.8
  Tissue distribution: Adipose: 1.68 ± 1.15 %ID/g
  Tissue distribution: Blood: 1.12 ± 0.48 %ID/g
  Tissue distribution: Bone: 0.36 ± 0.11 %ID/g
  Tissue distribution: Brain: 0.06 ± 0.02 %ID/g
  Tissue distribution: Heart: 0.78 ± 0.28 %ID/g
  Tissue distribution: Kidneys: 88.7 ± 23.8 %ID/g
  Tissue distribution: Lg Intestine: 4 ± 2.82 %ID/g
  Tissue distribution: Liver: 9.94 ± 2.53 %ID/g
  Tissue distribution: Lungs: 2.3 ± 1.02 %ID/g
  Tissue distribution: Sk.Muscle: 0.34 ± 0.17 %ID/g
  Tissue distribution: Sm Intestine: 4.67 ± 0.86 %ID/g
  Tissue distribution: Spleen: 3.73 ± 1.46 %ID/g
  Tissue distribution: Stomach: 2.33 ± 1.79 %ID/g
  Tissue distribution: Testes: 1.27 ± 0.31 %ID/g
  Tissue distribution: Tumor (LNCaP xenograft): 27.3 ± 3.4 %ID/g
[1]; [13]
  Ratio Tumor:Blood: 40.6
  Ratio Tumor:Skeletal Muscle: 133
  Tissue distribution: Adipose: 0.86 ± 0.43 %ID/g
  Tissue distribution: Blood: 0.84 ± 0.23 %ID/g
  Tissue distribution: Bone: 0.25 ± 0.04 %ID/g
  Tissue distribution: Brain: 0.44 ± 0.91 %ID/g
  Tissue distribution: Heart: 0.53 ± 0.09 %ID/g
  Tissue distribution: Kidneys: 77.5 ± 16.6 %ID/g
  Tissue distribution: Lg Intestine: 7.55 ± 7.69 %ID/g
  Tissue distribution: Liver: 7.82 ± 1.01 %ID/g
  Tissue distribution: Lungs: 1.6 ± 0.53 %ID/g
  Tissue distribution: Sm Intestine: 6.64 ± 3.19 %ID/g
  Tissue distribution: Spleen: 2.06 ± 0.63 %ID/g
  Tissue distribution: Stomach: 4.09 ± 1.36 %ID/g
  Tissue distribution: Testes: 0.84 ± 0.18 %ID/g
[1]; [14]
  Ratio Tumor:Blood: 57.5
  Ratio Tumor:Skeletal Muscle: 121
  Tissue distribution: Adipose: 2.63 ± 4.66 %ID/g
  Tissue distribution: Blood: 0.49 ± 0.21 %ID/g
  Tissue distribution: Bone: 0.28 ± 0.13 %ID/g
  Tissue distribution: Brain: 0.07 ± 0.02 %ID/g
  Tissue distribution: Heart: 0.38 ± 0.12 %ID/g
  Tissue distribution: Kidneys: 54.8 ± 19.1 %ID/g
  Tissue distribution: Lg Intestine: 12.28 ± 5.35 %ID/g
  Tissue distribution: Liver: 3.79 ± 0.87 %ID/g
  Tissue distribution: Lungs: 1.53 ± 1 %ID/g
  Tissue distribution: Sk.Muscle: 0.23 ± 0.13 %ID/g
  Tissue distribution: Sm Intestine: 3.66 ± 0.9 %ID/g
  Tissue distribution: Spleen: 1.34 ± 0.63 %ID/g
  Tissue distribution: Stomach: 4.43 ± 2.28 %ID/g
  Tissue distribution: Testes: 0.6 ± 0.12 %ID/g
  Tissue distribution: Tumor (LNCaP xenograft): 28.1 ± 12.8 %ID/g
[1]; [15]
  Ratio Tumor:Blood: 174
  Ratio Tumor:Skeletal Muscle: 304
  Tissue distribution: Adipose: 0.52 ± 0.25 %ID/g
  Tissue distribution: Blood: 0.17 ± 0.1 %ID/g
  Tissue distribution: Bone: 0.27 ± 0.19 %ID/g
  Tissue distribution: Brain: 0.03 ± 0.01 %ID/g
  Tissue distribution: Heart: 0.15 ± 0.08 %ID/g
  Tissue distribution: Kidneys: 27 ± 26.2 %ID/g
  Tissue distribution: Lg Intestine: 4.49 ± 3.09 %ID/g
  Tissue distribution: Liver: 1.31 ± 0.63 %ID/g
  Tissue distribution: Lungs: 0.55 ± 0.42 %ID/g
  Tissue distribution: Sk.Muscle: 0.1 ± 0.04 %ID/g
  Tissue distribution: Sm Intestine: 0.76 ± 0.48 %ID/g
  Tissue distribution: Spleen: 0.45 ± 0.29 %ID/g
  Tissue distribution: Stomach: 1.15 ± 1.2 %ID/g
  Tissue distribution: Testes: 0.27 ± 0.23 %ID/g
  Tissue distribution: Tumor (LNCaP xenograft): 29.1 ± 15.1 %ID/g
[1]; mouse, in vivo
  Blood-brain barrier crossing: do not cross the blood-brain barrier
  Route of clearance: by both urinary and hepatobiliary routes
[2]
  Localization to PC3 tumors: not to the PSMA deficient PC3 tumors
[3]
  SPECT/CT uptake in kidney and LNCaP tumor: high uptake
[4]
  Stability in liver microsomes: stable
[5]
  Stability in blood plasma: stable
[6]
  Binding to PC3 cells: no binding; also recorded: not to the PSMA deficient PC3 cells
[7]; 3 nM radioligand with 10 µM non-radiolabeled compound or 10 µM PMPA
  Binding to LNCaP cells in the presence of non-radiolabeled compound or PMPA: abolished; also recorded: inhibited
[7]; 3 nM radioligand, 1 hour, room temperature
  Binding to LNCaP cells: bound
PC3 PIP (PSMA +) tumors
  SPECT/CT detection of PC3 PIP (PSMA +) tumors: detected
